For one compound, PGE2 secretion results are on record in patent publication US20040126823A1, “Modulation of prostaglandin synthesis and cancer growth” (priority 2002, published 2004).

This assay has as its system Tpl2+/+ macrophages. The experiment in a line: PGE2 levels in LPS treated macrophages (ELISA of culture supernatants). The assay is classed as cell-based, mouse. As to conditions: pre-treatment with 20 pM PD98059; Tpl2+/+ macrophages stimulated for 4.5 hrs with LPS. On the procedure:
Tpl2+/+ and Tpl2−/− macrophage cultures were stimulated with […] LPS. Culture supernatants collected at 0, 3, 4.5, 6 or 10 hrs were analysed for PGE2 levels by ELISA. Unstimulated Tpl2+/+ and Tpl2−/− macrophage cultures secreted similar levels of PGE2 respectively. PGE2 levels produced by unstimulated cells were given the arbitrary value of 1. The bar graphs show the fold induction of PGE2 (±SD) compared to control untreated cultures.

Consider `COc1cccc(-c2cc(=O)c3ccccc3o2)c1N` [PD98059], for which the PGE2 secretion entry is listed as “inhibited PGE2 secretion”.
